Source: patent US20070128217A1 (priority 2003, published 2007)

Legend:
[1] = system: rabbit serum obtained by immunizing a rabbit with the SARS-CoV strain Frankfurt 1; type: binding; design: Binding of a rabbit serum to linear peptides / Binding of a rabbit serum to looped peptides / Rabbit serum linear peptides / Rabbit serum looped peptides / Binding of a rabbit serum to linear peptides of protein N of SARS-CoV Urbani (Rabbit serum linear peptides) / Binding of a rabbit serum to looped/cyclic peptides of protein N of SARS-CoV Urbani (Rabbit serum looped peptides): unit not given here
[2] = system: control sera (pooled serum of ten healthy LUMC hospital workers; commercial negative donor pooled serum from the Dutch bloodbank); type: binding, human; design: Binding of Control serum LUMC to linear peptides / Binding of Control serum Blood-bank to linear peptides / Binding of Control serum LUMC to looped peptides / Binding of Control Serum Blood-Bank to Looped peptides / Binding of Control serum LUMC to linear peptides of the protein M of SARS-CoV Urbani / Binding of Control serum Blood-bank to linear peptides of the protein M of SARS-CoV Urbani / Binding of Control serum LUMC to looped peptides of the protein M of SARS-CoV Urbani / Binding of Control Serum Blood-Bank to Looped peptides of the protein M of SARS-CoV Urbani: unit not given here
[3] = system: antibodies in sera from SARS patients (sera 1a, 1b, 2, 6, 37, 62, London, SARS-yellow, SARS-green); type: binding, human; design: Binding of serum 6 to linear peptides of protein X1 of SARS-CoV Urbani / Binding of serum 37 to linear peptides of protein X1 of SARS-CoV Urbani / Binding of serum 6 to looped/cyclic peptide (PEPSCAN-ELISA) / Binding of serum 37 to looped/cyclic peptide (PEPSCAN-ELISA) / Binding of serum 37 to looped/cyclic peptides of protein X1 of SARS-CoV Urbani / Binding of serum 6 to linear peptides of protein X2 / Binding of serum 37 to linear peptides of protein X2 / Binding of serum 37 to looped/cyclic peptides of protein X2 of SARS-CoV Urbani / Binding of serum 6 to linear peptides of protein M of SARS-CoV Urbani / Binding of serum 37 to linear peptides of protein M of SARS-CoV Urbani / Binding of serum 6 to looped/cyclic peptides of protein M of SARS-CoV Urbani / Binding of serum 37 to looped/cyclic peptides of protein M of SARS-CoV Urbani / Binding of serum 6 to linear peptides of protein X3 of SARS-CoV Urbani / Binding of serum 37 to linear peptides of protein X3 of SARS-CoV Urbani / Binding of serum 37 to looped/cyclic peptides of protein X3 of SARS-CoV Urbani / Binding of serum 6 to linear peptides of protein X4 of SARS-CoV Urbani / Binding of serum 37 to linear peptides of protein X4 of SARS-CoV Urbani / Binding of serum 37 to looped/cyclic peptides of protein X4 of SARS-CoV Urbani / Binding of serum 6 to linear peptides of protein X5 of SARS-CoV Urbani / Binding of serum 37 to linear peptides of protein X5 of SARS-CoV Urbani / Binding of serum 37 to looped/cyclic peptides of protein X5 of SARS-CoV Urbani / Binding of serum 6 to linear peptides of protein N of SARS-CoV Urbani / Binding of serum 37 to linear peptides of protein N of SARS-CoV Urbani / Binding of serum 6 to linear peptide (PEPSCAN-ELISA) / Binding of serum 1a to looped/cyclic peptides of protein N of SARS-CoV Urbani / Binding of serum 1b to looped/cyclic peptides of protein N of SARS-CoV Urbani / Binding of serum 2 to looped/cyclic peptides of protein N of SARS-CoV Urbani / Binding of serum 6 to looped/cyclic peptides of protein N of SARS-CoV Urbani / Binding of serum 37 to looped/cyclic peptides of protein N of SARS-CoV Urbani / Binding of serum 62 to looped/cyclic peptides of protein N of SARS-CoV Urbani / Binding of serum London to looped/cyclic peptides of protein N of SARS-CoV Urbani / Binding of serum SARS-green to looped/cyclic peptides of protein N of SARS-CoV Urbani: unit not given here
[4] = system: recombinant human anti-SARS-CoV antibody 03-018; type: binding; design: Binding of antibody 03-018 to linear peptides of the N protein of SARS-CoV Urbani / Binding of antibody 03-018 to looped/cyclic peptides of the N protein of SARS-CoV Urbani: unit not given here

Sequence | Binding of a rabbit serum to linear peptides of protein N of SARS-CoV Urbani (Rabbit serum linear peptides) [1] | Binding of a rabbit serum to looped/cyclic peptides of protein N of SARS-CoV Urbani (Rabbit serum looped peptides) [1] | Binding of Control Serum Blood-Bank to Looped peptides [2] | Binding of Control serum Blood-bank to linear peptides [2] | Binding of Control serum LUMC to linear peptides [2] | Binding of Control serum LUMC to looped peptides [2] | Binding of serum 1a to looped/cyclic peptides of protein N of SARS-CoV Urbani [3] | Binding of serum 1b to looped/cyclic peptides of protein N of SARS-CoV Urbani [3] | Binding of serum 2 to looped/cyclic peptides of protein N of SARS-CoV Urbani [3] | Binding of serum 6 to looped/cyclic peptides of protein N of SARS-CoV Urbani [3] | Binding of serum 37 to looped/cyclic peptides of protein N of SARS-CoV Urbani [3] | Binding of serum 62 to looped/cyclic peptides of protein N of SARS-CoV Urbani [3] | Binding of serum London to looped/cyclic peptides of protein N of SARS-CoV Urbani [3] | Binding of serum SARS-green to looped/cyclic peptides of protein N of SARS-CoV Urbani [3] | Binding of serum SARS-yellow to looped/cyclic peptides of protein N of SARS-CoV Urbani [3] | also measured
ASKKPRQKRTATKQY | 0.2 | 0.4 | 0.6 | 0.7 | 0.6 | 0.5 | 0.3 | 0.1 | 0.3 | 0.2 | 0.5 | 0.5 | 0.4 | 0.1 | 0.2 | Binding of serum 1a to linear peptide (PEPSCAN-ELISA) [3]: 0.2; Binding of serum 1b to linear peptide (PEPSCAN-ELISA) [3]: 0.1; Binding of serum 2 to linear peptide (PEPSCAN-ELISA) [3]: 0.3; Binding of serum 6 to linear peptide (PEPSCAN-ELISA) [3]: 0.2; Binding of serum 37 to linear peptide (PEPSCAN-ELISA) [3]: 0.7; Binding of serum 62 to linear peptide (PEPSCAN-ELISA) [3]: 0.6; Binding of serum London to linear peptide (PEPSCAN-ELISA) [3]: 0.5; Binding of serum SARS-green to linear peptide (PEPSCAN-ELISA) [3]: 0.3; Binding of serum SARS-yellow to linear peptide (PEPSCAN-ELISA) [3]: 0.5; Binding of antibody 03-018 to linear peptides of the N protein of SARS-CoV Urbani [4]: 0.1; Binding of antibody 03-018 to looped/cyclic peptides of the N protein of SARS-CoV Urbani [4]: 0.2
APRITFGGPTDSTDN | 0.2 | 0.6 | 0.6 | 0.6 | 0.5 | 0.6 | 0.4 | 0.2 | 0.3 | 0.2 | 0.6 | 0.6 | 0.2 | 0.6 | 0.4 | Binding of serum 1a to linear peptides of protein N of SARS-CoV Urbani [3]: 0.2; Binding of serum 1b to linear peptides of protein N of SARS-CoV Urbani [3]: 0.2; Binding of serum 2 to linear peptides of protein N of SARS-CoV Urbani [3]: 0.2; Binding of serum 6 to linear peptides of protein N of SARS-CoV Urbani [3]: 0.2; Binding of serum 37 to linear peptides of protein N of SARS-CoV Urbani [3]: 0.8; Binding of serum 62 to linear peptides of protein N of SARS-CoV Urbani [3]: 0.7; Binding of serum London to linear peptides of protein N of SARS-CoV Urbani [3]: 0.6; Binding of serum SARS-green to linear peptides of protein N of SARS-CoV Urbani [3]: 0.6; Binding of serum SARS-yellow to linear peptides of protein N of SARS-CoV Urbani [3]: 0.3; Recognition of the peptide by antibody 03-018 [4]: recognized
